Patent US10646488B2 (Araxes Pharma LLC, priority 2016, dated 2020)
Note: test concentration or dose not given here.

What follows are compounds tested against T1, KRAS G12C 1-169, his-tagged protein, GDP-loaded (Homo sapiens, UniProt P01116, G12C) (assay: Covalent binding (% modification) to KRAS G12C by mass spectrometry). Conditions: % modification at 10 min (footnote †).
T1 construct: KRAS G12C 1-169, his-tagged protein, GDP-loaded
In the case of `CC#CC(=O)N1C[C@H](C)N(c2nc(N3CC(N(C)C)C3)nc3c(F)c(-c4c(O)cccc4F)c(Cl)cc23)C[C@H]1C` [Compound 114, 1-((2R,5S)-4-(6-chloro-2-(3-(dimethylamino)azetidin-1-yl)-8-fluoro-7-(2-fluoro-6-hydroxyphenyl)quinazolin-4-yl)-2,5-dimethyl-piperazin-1-yl) but-2-yn-1-one], the Binding % is reported as “+ (+ indicates binding activity greater than 0% and up to 50%)”. For `C[C@@H]1CN(c2nc(N3CC(N(C)C)C3)nc3c(F)c(-c4c(O)cccc4F)c(Cl)cc23)[C@@H](C)CN1C(=O)C1CO1` (stereo partly drawn) [Compound 115, ((2R,5S)-4-(6-chloro-2-(3-(dimethylamino)azetidin-1-yl)-8-fluoro-7-(2-fluoro-6-hydroxyphenyl)quinazolin-4-yl)-2,5-dimethyl-piperazin-1-yl) (oxiran-2-yl) methanone], the Binding % was “+ (+ indicates binding activity greater than 0% and up to 50%)”.

Same assay, conditions: covalent binding to KRAS G12C after a three minute incubation period
In the case of `C=CC(=O)N1C[C@H](C)N(c2nc(N3CC(N(CC)C4CC4)C3)nc3c(F)c(-c4c(C)ccc5cn[nH]c45)c(Cl)cc23)C[C@H]1C` [Compound 116, 1-((2R,5S)-4-(6-chloro-2-(3-(cyclopropyl (ethyl)amino)azetidin-1-yl)-8-fluoro-7-(6-methyl-1H-indazol-7-yl)quinazolin-4-yl)-2,5-dimethyl-piperazin-1-yl) prop-2-en-1-one], the Binding % is reported as “++ (++ indicates binding activity from 50 to 90%)”. With `C=CC(=O)N1C[C@H](C)N(c2nc(N3CC(N(CC)CC)C3)nc3c(F)c(-c4c(C)ccc5cn[nH]c45)c(Cl)cc23)C[C@H]1C` [Compound 117, 1-((2R,5S)-4-(6-chloro-2-(3-(diethylamino)azetidin-1-yl)-8-fluoro-7-(6-methyl-1H-indazol-7-yl)quinazolin-4-yl)-2,5-dimethyl-piperazin-1-yl) prop-2-en-1-one] the Binding % was “+ (+ indicates binding activity greater than 0% and up to 50%)”. With `C=CC(=O)N1C[C@H](C)N(c2nc(N3CC(N(C)CC)C3)nc3c(F)c(-c4c(C)ccc5cn[nH]c45)c(Cl)cc23)C[C@H]1C` [Compound 118, 1-((2R,5S)-4-(6-chloro-2-(3-(ethyl(methyl)amino)azetidin-1-yl)-8-fluoro-7-(6-methyl-1H-indazol-7-yl)quinazolin-4-yl)-2,5-dimethyl-piperazin-1-yl) prop-2-en-1-one] the Binding % was “+ (+ indicates binding activity greater than 0% and up to 50%)”. With `C=CC(=O)N1C[C@H](C)N(c2nc(N3CC(N(C)CC)C3)nc3c(F)c(-c4c(C)ccc5[nH]ncc45)c(Cl)cc23)C[C@H]1C` [Compound 119, 1-((2R,5S)-4-(6-chloro-2-(3-(ethyl(methyl)amino)azetidin-1-yl)-8-fluoro-7-(5-methyl-1H-indazol-4-yl)quinazolin-4-yl)-2,5-dimethyl-piperazin-1-yl) prop-2-en-1-one] the Binding % was “+ (+ indicates binding activity greater than 0% and up to 50%)”. With `C=CC(=O)N1C[C@H](C)N(c2nc(N3CC(C)(N(C)C)C3)nc3c(F)c(-c4c(C)ccc5[nH]ncc45)c(Cl)cc23)C[C@H]1C` [Compound 121, 1-((2R,5S)-4-(6-chloro-2-(3-(dimethylamino)-3-methylazetidin-1-yl)-8-fluoro-7-(5-methyl-1H-indazol-4-yl)quinazolin-4-yl)-2,5-dimethyl-piperazin-1-yl) prop-2-en-1-one] the Binding % was “++ (++ indicates binding activity from 50 to 90%)”. For `C=CC(=O)N1C[C@H](C)N(c2nc(N3CC(N(C)C(C)C)C3)nc3c(F)c(-c4c(C)ccc5cn[nH]c45)c(Cl)cc23)C[C@H]1C` [Compound 122, 1-((2R,5S)-4-(6-chloro-8-fluoro-2-(3-(isopropyl (methyl)amino)azetidin-1-yl)-7-(6-methyl-1H-indazol-7-yl)quinazolin-4-yl)-2,5-dimethyl-piperazin-1-yl) prop-2-en-1-one], the Binding % was “++ (++ indicates binding activity from 50 to 90%)”. With `C=CC(=O)N1C[C@H](C)N(c2nc(N3CC(N(C)C(C)C)C3)nc3c(F)c(-c4c(C)ccc5[nH]ncc45)c(Cl)cc23)C[C@H]1C` [Compound 123, 1-((2R,5S)-4-(6-chloro-8-fluoro-2-(3-(isopropyl (methyl)amino)azetidin-1-yl)-7-(5-methyl-1H-indazol-4-yl)quinazolin-4-yl)-2,5-dimethyl-piperazin-1-yl) prop-2-en-1-one] the Binding % was “+ (+ indicates binding activity greater than 0% and up to 50%)”. In the case of `C=CC(=O)N1C[C@H](C)N(c2nc(N3CC(C)(N(C)C)C3)nc3c(F)c(-c4c(C)ccc5cn[nH]c45)c(Cl)cc23)C[C@H]1C` [Compound 124, 1-((2R,5S)-4-(6-chloro-2-(3-(dimethylamino)-3-methylazetidin-1-yl)-8-fluoro-7-(6-methyl-1H-indazol-7-yl)quinazolin-4-yl)-2,5-dimethyl-piperazin-1-yl) prop-2-en-1-one], the Binding % is reported as “++ (++ indicates binding activity from 50 to 90%)”. With `C=CC(=O)N1C[C@H](C)N(c2nc(N3CC(N(CC)C4CC4)C3)nc3c(F)c(-c4c(C)ccc5[nH]ncc45)c(Cl)cc23)C[C@H]1C` [Compound 125, 1-((2R,5S)-4-(6-chloro-2-(3-(cyclopropyl (ethyl)amino)azetidin-1-yl)-8-fluoro-7-(5-methyl-1H-indazol-4-yl)quinazolin-4-yl)-2,5-dimethyl-piperazin-1-yl) prop-2-en-1-one] the Binding % was “++ (++ indicates binding activity from 50 to 90%)”. For `C=CC(=O)N1C[C@H](C)N(c2nc(N3CC(N(CC)CC)C3)nc3c(F)c(-c4c(O)cccc4F)c(Cl)cc23)C[C@H]1C` [Compound 126, 1-((2R,5S)-4-(6-chloro-2-(3-(diethylamino)azetidin-1-yl)-8-fluoro-7-(2-fluoro-6-hydroxyphenyl)quinazolin-4-yl)-2,5-dimethyl-piperazin-1-yl) prop-2-en-1-one], the Binding % was “+++ (+++ indicates binding activity greater than 90%)”. With `C=CC(=O)N1C[C@H](C)N(c2nc(N3CC(N(CC)CC)C3)nc3c(F)c(-c4c(C)ccc5cn[nH]c45)c(Cl)cc23)C[C@H]1C` [Compound 129, 1-((2R,5S)-4-(6-chloro-2-(3-(diethylamino)azetidin-1-yl)-8-fluoro-7-(6-methyl-1H-indazol-7-yl)quinazolin-4-yl)-2,5-dimethyl-piperazin-1-yl) prop-2-en-1-one] the Binding % was “++ (++ indicates binding activity from 50 to 90%)”. With `C=CC(=O)N1C[C@H](C)N(c2nc(N3CC(N(C)C)C3)nc3c(F)c(-c4ccccc4F)c(Cl)cc23)C[C@H]1C` [Compound 132, 1-((2R,5S)-4-(6-chloro-2-(3-(dimethylamino)azetidin-1-yl)-8-fluoro-7-(2-fluorophenyl)quinazolin-4-yl)-2,5-dimethyl-piperazin-1-yl) prop-2-en-1-one] the Binding % was “++ (++ indicates binding activity from 50 to 90%)”. For `C=CC(=O)N1C[C@H](C)N(c2nc(N3CC(N(C)C4CC4)C3)nc3c(F)c(-c4c(C)ccc5cn[nH]c45)c(Cl)cc23)C[C@H]1C` [Compound 133, 1-((2R,5S)-4-(6-chloro-2-(3-(cyclopropyl (methyl)amino)azetidin-1-yl)-8-fluoro-7-(6-methyl-1H-indazol-7-yl)quinazolin-4-yl)-2,5-dimethyl-piperazin-1-yl) prop-2-en-1-one], the Binding % was “++ (++ indicates binding activity from 50 to 90%)”. For `C=CC(=O)N1C[C@H](C)N(c2nc(N3CC(N(C)C4CC4)C3)nc3c(F)c(-c4c(C)ccc5[nH]ncc45)c(Cl)cc23)C[C@H]1C` [Compound 134, 1-((2R,5S)-4-(6-chloro-2-(3-(cyclopropyl (methyl)amino)azetidin-1-yl)-8-fluoro-7-(5-methyl-1H-indazol-4-yl)quinazolin-4-yl)-2,5-dimethyl-piperazin-1-yl) prop-2-en-1-one], the Binding % was “++ (++ indicates binding activity from 50 to 90%)”. For `C=CC(=O)N1C[C@H](C)N(c2nc(N3CC(N(C)C)C3)nc3c(F)c(-c4ccccc4O)c(Cl)cc23)C[C@H]1C` [Compound 135, 1-((2R,5S)-4-(6-chloro-2-(3-(dimethylamino)azetidin-1-yl)-8-fluoro-7-(2-hydroxyphenyl)quinazolin-4-yl)-2,5-dimethyl-piperazin-1-yl) prop-2-en-1-one], the Binding % was “++ (++ indicates binding activity from 50 to 90%)”. In the case of `C=CC(=O)N1C[C@H](C)N(c2nc(OCCN(CC)CC)nc3c(F)c(-c4c(C)ccc5cn[nH]c45)c(Cl)cc23)C[C@H]1C` [Compound 136, 1-((2R,5S)-4-(6-chloro-2-(2-(diethylamino)ethoxy)-8-fluoro-7-(6-methyl-1H-indazol-7-yl)quinazolin-4-yl)-2,5-dimethyl-piperazin-1-yl) prop-2-en-1-one], the Binding % is reported as “+++ (+++ indicates binding activity greater than 90%)”. For `C=CC(=O)N1C[C@H](C)N(c2nc(OC3CCN(C4CC4)CC3)nc3c(F)c(-c4c(C)ccc5cn[nH]c45)c(Cl)cc23)C[C@H]1C` [Compound 137, 1-((2R,5S)-4-(6-chloro-2-((1-cyclopropyl-piperidin-4-yl)oxy)-8-fluoro-7-(6-methyl-1H-indazol-7-yl)quinazolin-4-yl)-2,5-dimethyl-piperazin-1-yl) prop-2-en-1-one], the Binding % was “+++ (+++ indicates binding activity greater than 90%)”. For `C=CC(=O)N1C[C@H](C)N(c2nc(N3CC4(CCN(C5CC5)C4)C3)nc3c(F)c(-c4c(C)ccc5[nH]ncc45)c(Cl)cc23)C[C@H]1C` [Compound 140, 1-((2R,5S)-4-(6-chloro-2-(6-cyclopropyl-2,6-diazaspiro[3.4]octan-2-yl)-8-fluoro-7-(5-methyl-1H-indazol-4-yl)quinazolin-4-yl)-2,5-dimethyl-piperazin-1-yl) prop-2-en-1-one], the Binding % was “++ (++ indicates binding activity from 50 to 90%)”. With `C=CC(=O)N1C[C@H](C)N(c2nc(COCc3ncccc3F)nc3c(F)c(-c4c(O)cccc4F)c(Cl)cc23)C[C@H]1C` [Compound 141, 1-((2R,5S)-4-(6-chloro-8-fluoro-7-(2-fluoro-6-hydroxyphenyl)-2-(((3-fluoro-pyridin-2-yl)methoxy)methyl)quinazolin-4-yl)-2,5-dimethyl-piperazin-1-yl) prop-2-en-1-one] the Binding % was “++ (++ indicates binding activity from 50 to 90%)”.
